# In patent publication US8426345B2, “Method of drug design” (Alchemia Limited, priority 2005, dated 2013):
# Biological target: T1, Human SST5 somatostatin receptor (Homo sapiens, UniProt P35346)
# T1 construct: expressed in transfected cells; host or cells: HEK-293 EBNA cells (membranes)
# Test: Filter plate radio-ligand binding assay for SST5 receptor ([125I]SST-14 displacement)
# Details: for % SST5 radio-ligand binding displaced at conc 0.25: conc 0.25 μM; for % SST5 radio-ligand binding displaced at conc 0.25 / % SST5 radio-ligand binding displaced at conc 1.0: 3P library; for % SST5 radio-ligand binding displaced at conc 1.0: conc 1.0 μM; for % SST5 radio-ligand binding displaced at conc 50: compound conc 50 μM; for % SST5 radio-ligand binding displaced at conc 50 / % SST5 radio-ligand binding displaced at conc 250 / % SST5 radio-ligand binding displaced at conc 500: 2P library; for % SST5 radio-ligand binding displaced at conc 250: compound conc 250 μM; for % SST5 radio-ligand binding displaced at conc 500: compound conc 500 μM
# T1 sequence (P35346 whole entry): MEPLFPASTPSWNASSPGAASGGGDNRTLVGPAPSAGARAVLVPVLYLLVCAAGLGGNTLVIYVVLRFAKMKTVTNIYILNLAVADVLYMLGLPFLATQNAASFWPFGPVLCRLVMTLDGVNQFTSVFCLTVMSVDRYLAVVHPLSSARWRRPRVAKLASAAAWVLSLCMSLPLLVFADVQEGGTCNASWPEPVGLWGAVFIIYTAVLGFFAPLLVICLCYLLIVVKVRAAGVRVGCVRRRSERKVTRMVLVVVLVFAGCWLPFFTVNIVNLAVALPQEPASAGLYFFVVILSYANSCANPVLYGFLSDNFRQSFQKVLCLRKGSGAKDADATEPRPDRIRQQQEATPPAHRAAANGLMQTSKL
SMILES,% SST5 radio-ligand binding displaced at conc 0.25,% SST5 radio-ligand binding displaced at conc 1.0,% SST5 radio-ligand binding displaced at conc 50,% SST5 radio-ligand binding displaced at conc 250,% SST5 radio-ligand binding displaced at conc 500
"COC[C@H]1OC(OCc2ccc(Cl)cc2)[C@H](NC(=O)CN)[C@@H](OCc2ccccc2)[C@@H]1O (single isomer, unassigned) [Compound 169]",− (% SST5 radio-ligand binding displaced at cone (μM) −<40%),− (% SST5 radio-ligand binding displaced at cone (μM) −<40%),–,–,–
"COC[C@H]1OC(OCc2ccc(Cl)cc2)[C@H](NC(=O)CN)[C@@H](OCc2ccc(Cl)cc2)[C@@H]1O (single isomer, unassigned) [Compound 170]",− (% SST5 radio-ligand binding displaced at cone (μM) −<40%),− (% SST5 radio-ligand binding displaced at cone (μM) −<40%),–,–,–
"COC[C@H]1OC(OCc2ccc(Cl)cc2)[C@H](NC(=O)CN)[C@@H](OCc2ccc(Cl)cc2)[C@@H]1O (single isomer, unassigned) [Compound 171]",− (% SST5 radio-ligand binding displaced at cone (μM) −<40%),− (% SST5 radio-ligand binding displaced at cone (μM) −<40%),–,–,–
"COC[C@H]1OC(OCc2ccc(Cl)cc2)[C@H](NC(=O)CN)[C@@H](OCc2ccc(-c3ccccc3)cc2)[C@@H]1O (single isomer, unassigned) [Compound 172]",− (% SST5 radio-ligand binding displaced at cone (μM) −<40%),− (% SST5 radio-ligand binding displaced at cone (μM) −<40%),–,–,–
COC[C@H]1O[C@H](OCc2ccc3ccccc3c2)[C@H](NC(=O)CCN)[C@@H](OC)[C@@H]1O [Compound 5],–,–,− (% SST5 radio-ligand binding displaced at cone (μM) −<40%),+ (% SST5 radio-ligand binding displaced at cone (μM) 60>+>40%),++ (% SST5 radio-ligand binding displaced at conc (μM) >60%)
COC[C@H]1O[C@H](OCc2ccc3ccccc3c2)[C@H](NC(=O)CCCN)[C@@H](OC)[C@@H]1O [Compound 6],–,–,− (% SST5 radio-ligand binding displaced at cone (μM) −<40%),+ (% SST5 radio-ligand binding displaced at cone (μM) 60>+>40%),++ (% SST5 radio-ligand binding displaced at conc (μM) >60%)
CO[C@H]1[C@H](O)[C@@H](COCc2ccc(Cl)cc2)O[C@@H](SC)[C@@H]1NC(=O)CN [Compound 7],–,–,− (% SST5 radio-ligand binding displaced at cone (μM) −<40%),− (% SST5 radio-ligand binding displaced at cone (μM) −<40%),− (% SST5 radio-ligand binding displaced at cone (μM) −<40%)
CO[C@H]1[C@H](O)[C@@H](COCc2ccc3ccccc3c2)O[C@@H](SC)[C@@H]1NC(=O)CN [Compound 8],–,–,− (% SST5 radio-ligand binding displaced at cone (μM) −<40%),+ (% SST5 radio-ligand binding displaced at cone (μM) 60>+>40%),++ (% SST5 radio-ligand binding displaced at conc (μM) >60%)
COC[C@H]1O[C@@H](SC)[C@H](NC(=O)CN)[C@@H](OCc2ccc(Cl)cc2)[C@@H]1O [Compound 9],–,–,− (% SST5 radio-ligand binding displaced at cone (μM) −<40%),− (% SST5 radio-ligand binding displaced at cone (μM) −<40%),− (% SST5 radio-ligand binding displaced at cone (μM) −<40%)
COC[C@H]1O[C@@H](SC)[C@H](NC(=O)CN)[C@@H](OCc2ccc3ccccc3c2)[C@@H]1O [Compound 10],–,–,− (% SST5 radio-ligand binding displaced at cone (μM) −<40%),− (% SST5 radio-ligand binding displaced at cone (μM) −<40%),− (% SST5 radio-ligand binding displaced at cone (μM) −<40%)
COC[C@H]1O[C@H](OCc2ccc(Cl)cc2)[C@H](NC(=O)CN)[C@@H](OC)[C@@H]1O [Compound 11],–,–,− (% SST5 radio-ligand binding displaced at cone (μM) −<40%),− (% SST5 radio-ligand binding displaced at cone (μM) −<40%),− (% SST5 radio-ligand binding displaced at cone (μM) −<40%)
COC[C@H]1O[C@H](OCc2ccc3ccccc3c2)[C@H](NC(=O)CN)[C@@H](OC)[C@@H]1O [Compound 12],–,–,− (% SST5 radio-ligand binding displaced at cone (μM) −<40%),− (% SST5 radio-ligand binding displaced at cone (μM) −<40%),− (% SST5 radio-ligand binding displaced at cone (μM) −<40%)
COC[C@H]1O[C@@H](OCc2ccc(Cl)cc2)[C@H](NC(=O)CN)[C@@H](OC)[C@@H]1O [Compound 13],–,–,− (% SST5 radio-ligand binding displaced at cone (μM) −<40%),− (% SST5 radio-ligand binding displaced at cone (μM) −<40%),− (% SST5 radio-ligand binding displaced at cone (μM) −<40%)
COC[C@H]1O[C@@H](OCc2ccc3ccccc3c2)[C@H](NC(=O)CN)[C@@H](OC)[C@@H]1O [Compound 14],–,–,− (% SST5 radio-ligand binding displaced at cone (μM) −<40%),− (% SST5 radio-ligand binding displaced at cone (μM) −<40%),− (% SST5 radio-ligand binding displaced at cone (μM) −<40%)
CO[C@H]1[C@H](O)[C@@H](COCc2ccc(Cl)cc2)O[C@@H](SC)[C@@H]1NC(=O)CCN [Compound 15],–,–,− (% SST5 radio-ligand binding displaced at cone (μM) −<40%),− (% SST5 radio-ligand binding displaced at cone (μM) −<40%),− (% SST5 radio-ligand binding displaced at cone (μM) −<40%)
CO[C@H]1[C@H](O)[C@@H](COCc2ccc3ccccc3c2)O[C@@H](SC)[C@@H]1NC(=O)CCN [Compound 16],–,–,− (% SST5 radio-ligand binding displaced at cone (μM) −<40%),− (% SST5 radio-ligand binding displaced at cone (μM) −<40%),+ (% SST5 radio-ligand binding displaced at cone (μM) 60>+>40%)
COC[C@H]1O[C@@H](SC)[C@H](NC(=O)CCN)[C@@H](OCc2ccc(Cl)cc2)[C@@H]1O [Compound 17],–,–,− (% SST5 radio-ligand binding displaced at cone (μM) −<40%),− (% SST5 radio-ligand binding displaced at cone (μM) −<40%),− (% SST5 radio-ligand binding displaced at cone (μM) −<40%)
COC[C@H]1O[C@@H](SC)[C@H](NC(=O)CCN)[C@@H](OCc2ccc3ccccc3c2)[C@@H]1O [Compound 18],–,–,− (% SST5 radio-ligand binding displaced at cone (μM) −<40%),− (% SST5 radio-ligand binding displaced at cone (μM) −<40%),− (% SST5 radio-ligand binding displaced at cone (μM) −<40%)
COC[C@H]1O[C@H](OCc2ccc(Cl)cc2)[C@H](NC(=O)CCN)[C@@H](OC)[C@@H]1O [Compound 19],–,–,− (% SST5 radio-ligand binding displaced at cone (μM) −<40%),− (% SST5 radio-ligand binding displaced at cone (μM) −<40%),++ (% SST5 radio-ligand binding displaced at conc (μM) >60%)
COC[C@H]1O[C@@H](OCc2ccc(Cl)cc2)[C@H](NC(=O)CCN)[C@@H](OC)[C@@H]1O [Compound 20],–,–,− (% SST5 radio-ligand binding displaced at cone (μM) −<40%),− (% SST5 radio-ligand binding displaced at cone (μM) −<40%),+ (% SST5 radio-ligand binding displaced at cone (μM) 60>+>40%)
COC[C@H]1O[C@@H](OCc2ccc3ccccc3c2)[C@H](NC(=O)CCN)[C@@H](OC)[C@@H]1O [Compound 21],–,–,− (% SST5 radio-ligand binding displaced at cone (μM) −<40%),+ (% SST5 radio-ligand binding displaced at cone (μM) 60>+>40%),++ (% SST5 radio-ligand binding displaced at conc (μM) >60%)
CO[C@H]1[C@H](O)[C@@H](COCc2ccc(Cl)cc2)O[C@@H](SC)[C@@H]1NC(=O)CCCN [Compound 22],–,–,− (% SST5 radio-ligand binding displaced at cone (μM) −<40%),− (% SST5 radio-ligand binding displaced at cone (μM) −<40%),− (% SST5 radio-ligand binding displaced at cone (μM) −<40%)
CO[C@H]1[C@H](O)[C@@H](COCc2ccc3ccccc3c2)O[C@@H](SC)[C@@H]1NC(=O)CCCN [Compound 23],–,–,− (% SST5 radio-ligand binding displaced at cone (μM) −<40%),− (% SST5 radio-ligand binding displaced at cone (μM) −<40%),+ (% SST5 radio-ligand binding displaced at cone (μM) 60>+>40%)
COC[C@H]1O[C@@H](SC)[C@H](NC(=O)CCCN)[C@@H](OCc2ccc(Cl)cc2)[C@@H]1O [Compound 24],–,–,− (% SST5 radio-ligand binding displaced at cone (μM) −<40%),− (% SST5 radio-ligand binding displaced at cone (μM) −<40%),− (% SST5 radio-ligand binding displaced at cone (μM) −<40%)
COC[C@H]1O[C@@H](SC)[C@H](NC(=O)CCCN)[C@@H](OCc2ccc3ccccc3c2)[C@@H]1O [Compound 25],–,–,− (% SST5 radio-ligand binding displaced at cone (μM) −<40%),− (% SST5 radio-ligand binding displaced at cone (μM) −<40%),+ (% SST5 radio-ligand binding displaced at cone (μM) 60>+>40%)
